The text below walks through data of PubChem BioAssay AID1902 (Broad Institute, 2009).

Calls of active or inactive are those of the source.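 Rule for the calls: active = EC50 no more than a set limit of log units above the highest dose; inactive = the rest.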 A value given as a limit tells only on which side of the number the result lay.

For the assay, the target named is S. pyogenes SKKanGAS, kanamycin survival, BacTiterGlo, 6 h. Description: SKKanGAS survival reduction under kanamycin, dose response, streptokinase promoter inhibitor project, SKKanGAS strain, luminescence, dose confirmation (AID 1902).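 Note: lower survival reflects blocked streptokinase promoter driving kanamycin resistance gene.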
For orientation: EC50 means the midpoint of the concentration-response curve. For `O=C(N/N=C/c1cc([N+](=O)[O-])ccc1O)/C(=C\c1cccs1)NC(=O)c1ccccc1`, the EC50 is 1.81 µM. With `Oc1c(Br)cc(Br)cc1/C=N/c1nc2c(s1)CCCC2`, the EC50 was 5.86 µM.

On to `CC(C)(C)c1ccc(OCC(=O)N2CCN(c3ncccn3)CC2)cc1`, for which the EC50 was > 15 µM (inactive). On to `CCn1c(=O)c(C(=O)NNC(=O)Cc2ccccc2)c(O)c2ccccc21`, for which the EC50 is 4.71 µM. For the compound `Oc1c(N=Nc2ccccn2)ccc2ccccc12`, the half-maximal effective concentration (EC50) was 2.58 µM. Then `C/C(=N\Nc1cc(N2CCCCC2)nc(C)n1)c1ccc(Br)cc1`, with 4.46 µM; and `CCOC(=O)c1cnn(-c2nc3c(C)cccc3s2)c1C(F)(F)F`, with 12.5 µM; and `CC(Oc1ccc(Cl)cc1Cl)c1nc(-c2ccc(NC(=O)c3ccco3)cc2)no1` (stereo unspecified), with 5.82 µM. For the compound `Cc1ccc(C(=O)N2CCOCC2)cc1Cl`, the EC50 was > 15 µM (inactive). Regarding `CCn1c(=O)c(C(=O)NNC(=O)c2ccccc2F)c(O)c2ccccc21`, the EC50 was 3.17 µM.

As for `COc1cccc(OC)c1C(=O)Nc1cc(C)nn1-c1nc2ccccc2[nH]1`, the EC50 was 6.26 µM. Then `C[C@@H](O)[C@H]1C(=O)N2C(C(=O)O)=C(S[C@@H]3CN[C@H](C(=O)N(C)C)C3)[C@H](C)[C@H]12`, with 0.127 µM. The value for `O=[N+]([O-])c1ccc(NC(=S)NCCc2ccc(Cl)cc2)cc1` was 1.73 µM; that for `O=C(CC1CCCCC1)c1c(O)c2ccccc2oc1=O` was 3.54 µM; that for `COc1cc(C(=O)NNC(=S)NC(=O)c2ccc(Cl)cc2)cc(OC)c1OC` was 0.499 µM.

Regarding `O=C(Cc1csc(NC(=O)Nc2cccc(Cl)c2)n1)NCc1cccnc1`, the EC50 was 4.4 µM.

Take `Cc1ccc(C2C(C(=O)c3cc4ccccc4o3)=C(O)C(=O)N2c2cc(C)on2)cc1` (stereo unspecified): the EC50 is 2.1 µM. Take `O=C(NNC(=S)NC(=O)c1cn(-c2ccccc2)nc1-c1ccccc1)c1ccncc1`: the concentration giving a half-maximal response (EC50) is 0.151 µM.

Take `Oc1[nH]c2ccc(Br)cc2c1N=NC(=S)N1CCOCC1`: the EC50 was 0.108 µM. Turning to `Cc1oc(-c2cc(Cl)cc(Cl)c2)cc1C(=O)NCCc1ccccc1`, the EC50 was 11.7 µM. The value for `Cc1ccc(CNC(=S)Nc2ccc(NS(=O)(=O)c3ccc(C)cc3)cc2)cc1` was 8.28 µM; that for `CCOC(=O)c1sc(N2C(=O)C(O)=C(C(=O)c3ccco3)C2c2cccc(Cl)c2)nc1C` (stereo unspecified) was 5.26 µM.

For the compound `Cn1c(Oc2ccccc2NCc2cc(Br)ccc2O)cc(=O)n(C)c1=O`, the half-maximal effective concentration (EC50) was 4.46 µM. With `COc1cccc(/C=C/C(=O)OCC(=O)Nc2nnc(-c3ccccc3)o2)c1`, the EC50 is 4.21 µM. Turning to `Cc1ccc(/C=C2/Sc3ccc(C(=O)N4CCC5(CC4)OCCO5)cc3NC2=O)cc1`, the EC50 is 5.88 µM. Turning to `Cc1ccccc1Nc1nc(N)nc(CN(C)Cc2ccccc2Cl)n1`, the EC50 was 1.76 µM. Then `Cc1ccc(-c2cc(C(F)F)nc(N3CCC(C)CC3)n2)cc1`, with 5.48 µM; and `Brc1ccccc1C1Nc2cccc3cccc(c23)N1`, with 5.03 µM; and `COC(=O)C1N2C(=O)[C@@H](NC(=O)COc3ccccc3)[C@H]2SC1(C)C` (stereo partly specified), with 0.377 µM.

For the compound `Cc1cc(=O)[nH]c(SCC(=O)Nc2ccc(Br)cc2)c1C#N`, the EC50 was 9.7 µM. The value for `COc1ccc(-n2nc3cc(C)c(NC(=O)C(C)C)cc3n2)cc1` was > 15 µM (inactive); that for `CC1CCCCN1S(=O)(=O)c1ccc(C(=O)Nc2nnc(-c3cccs3)o2)cc1` (stereo unspecified) was 0.659 µM; that for `C=C[C@]1(C)C[C@@H](OC(=O)CSCCN(CC)CC)[C@]2(C)C(C)CC[C@]3(CCC(=O)[C@H]32)[C@@H](C)[C@@H]1O` (stereo partly specified) was under 0.06 µM. The value for `COc1ccccc1OCC(=O)Nc1c2c(nn1-c1ccc(F)cc1)CS(=O)(=O)C2` was > 15 µM (inactive); that for `O=[N+]([O-])c1c(NCCO)cc(Sc2nc3ccccc3s2)c2nonc12` was 2.95 µM; that for `N#C/C(=N\Nc1ccc(S(=O)(=O)N2CCOCC2)cc1)C(N)=S` was > 15 µM (inactive). As for `Cc1ccc(Nc2nc3nonc3[nH]c2=O)cc1Cl`, the EC50 was 2.54 µM. Consider `c1ccc(-n2c3ccccc3c3ccccc32)cc1`, for which the EC50 was 4.4 µM. Regarding `FC(F)Sc1ccc(NC(=S)NC(c2ccccc2)c2ccccc2)cc1`, the EC50 was 2.28 µM. `COc1ccccc1Sc1nc(-c2ccccn2)ncc1OC`: the EC50 is 14.7 µM.

Turning to `N#Cc1ccc(Cl)cc1NC(=O)CSc1nc2nc(-c3cccs3)cc(C(F)(F)F)c2c(=O)[nH]1`, the EC50 is 4.97 µM. `C=C(C)COc1ccc(-c2nc(N)ncc2-c2ccc(Cl)cc2)c(O)c1`: the 50% effective concentration (EC50) is 5.69 µM.

As for `Cc1cccc(C)c1Nc1c(-c2ccccn2)nc2ccccn12`, the half-maximal effective concentration (EC50) was 6.67 µM. As for `Cc1cc(=O)c(C(=O)O)cn1Nc1ccc(Cl)cc1`, the half-maximal effective concentration (EC50) was 2.36 µM.

`O=C1C=C(N2CCCCC2)c2ccccc2C1=O`: the EC50 was 3.67 µM. The value for `CC(C)(C)[C@@H]1CCC(=O)N(CC[C@H](Sc2ccccc2)c2ccccc2)CC1` was 3.95 µM; that for `Cc1cccc(NC(=O)C2SC(=Nc3c(C)cccc3C)C(C(=O)N3CCOCC3)=C2N)c1` (stereo unspecified) was 2.44 µM. With `CN1CCN(c2cc3c(cc2F)c(=O)c(C(=O)O)cn3CCF)CC1`, the EC50 is 4.37 µM. Turning to `Brc1ccc(-c2cn3c(n2)CCc2ccc4cccnc4c2-3)cc1`, the EC50 is 1.77 µM. For the compound `COCCNC(=O)c1c(NC(=O)c2ccco2)n(Cc2ccccc2)c2nc3ccccc3nc12`, the EC50 was 8.51 µM. On to `CC(C)(C)c1cc(NCCCn2ccnc2)n2ncc(-c3ccc(Cl)cc3)c2n1`, for which the EC50 is 2.38 µM. The value for `CC(C)Cn1c2c(c(O)c(C(=O)Nc3ncccc3O)c1=O)CCCC2` was 2.35 µM; that for `Cc1cc(C)c[n+](C2=C([O-])c3ccccc3C(=O)/C2=N\S(=O)(=O)c2cccs2)c1` was 1.85 µM. Take `Cc1c(C(=O)N2CCC(Cc3ccccc3)CC2)sc2ncnc(N3CCC(C)CC3)c12`: the EC50 was 6.31 µM. For the compound `Cc1ccnc(NC(c2ccsc2)c2ccc3ccc(C)nc3c2O)c1` (stereo unspecified), the EC50 is 11.7 µM.

As to `Cc1sc2ncnc(N/N=C/c3ccccc3O)c2c1C`, the EC50 is 4.09 µM. As to `O=C(/C(N=Nc1cccc([N+](=O)[O-])c1)=C(/O)c1ccc(Br)cc1)C(F)(F)F`, the EC50 was 4.28 µM.

With `O=C(NC(=S)NNC(=O)c1ccccc1O)c1ccc(F)cc1`, the EC50 was 1.29 µM.

In the case of `Oc1c(Br)cc(Br)cc1/C=N/NC(=S)N[C@H]1CC2C=CC1C2` (stereo partly specified), the EC50 is 0.15 µM.

`O=C(NC(=S)N1CCN(c2c(Cl)cccc2[N+](=O)[O-])CC1)c1cccs1`: the EC50 was 5.15 µM. On to `Cc1ccc(CN2C(=O)c3ccccc3NC2c2cc(Br)ccc2O)cc1` (stereo unspecified), for which the EC50 was 4.31 µM. Then `Cc1ccc2nc(-c3ccc(N)cc3)sc2c1`, with > 15 µM (inactive); and `CC(C)c1ccc2nc3sc(C(=O)N4CCc5ccccc5C4)c(N)c3cc2c1`, with 14.5 µM; and `Cc1[nH]n(-c2ccccc2)c(=O)c1/C=N\NC(=O)C1COc2ccccc2O1` (stereo unspecified), with 1.37 µM. On to `Cc1conc1NC(c1cccs1)c1ccc2cccnc2c1O` (stereo unspecified), for which the EC50 is 1.23 µM. As for `CCOc1ccc(NC(=O)c2c(NC(=O)CNCCN3CCOCC3)sc3c2CCC3)cc1`, the EC50 is 1.1 µM. For `N#CC(C(=O)C12CC3CC(CC(C3)C1)C2)c1nc2ccccc2[nH]1` (stereo unspecified), the EC50 was 3.23 µM. Then `C=CCn1c(COc2ccccc2)nnc1SC(C)C(=O)N/N=C/c1cc(Cl)ccc1O` (stereo unspecified), with 1.7 µM; and `O=C(OCc1ccc(COC(=O)c2ccc(O)cc2)cc1)c1ccc(O)cc1`, with 2.21 µM. As to `CCc1nnc(NS(=O)(=O)c2ccc(NC(=S)NC(=O)/C=C/c3ccc(C(C)C)cc3)cc2)s1`, the EC50 was 3.11 µM. For `Cc1csc(NC(=O)COCC(=O)O)c1-c1nc2ccccc2s1`, the EC50 is 6.45 µM.

As for `O=C(N/N=C/c1ccc(-c2ccc(Cl)c(C(=O)O)c2)o1)c1cc2c(ccc3ccccc32)o1`, the EC50 was 4.05 µM. Take `COc1ccccc1CNC(=O)c1ccc(-c2ccccc2Cl)o1`: the 50% effective concentration (EC50) is 9.96 µM.

For the compound `Cc1cccc(-n2c(N)c(-c3nc4ccccc4n3C)c3nc4ccccc4nc32)c1`, the EC50 is 2.26 µM.

As to `Cc1ccc(C(=O)N/N=C/c2ccc([N+](=O)[O-])s2)cc1`, the EC50 is 14 µM. For the compound `O=Cc1cc(N=Nc2ccccc2Cl)ccc1O`, the EC50 was 2.96 µM. The value for `Cc1cc(/C=C2\SC(=S)N(C)C2=O)c(C)n1-c1ccccc1O` was 6.72 µM; that for `O=C(Nc1cccc(Cl)c1)Nc1csc([N+](=O)[O-])c1` was 8.11 µM; that for `CC(C)n1nc(C(=O)Nc2nnc(SCc3c(Cl)cccc3Cl)s2)c2ccccc2c1=O` was 1.68 µM. The value for `COc1ccc(-c2cc(-c3ccc(C)cc3)n[nH]2)c(O)c1` was 2.76 µM; that for `Cc1cccc(C)c1OCC(=O)Nc1ccccc1N1CCCCC1` was 2.78 µM. Take `COc1cccc(NC(=S)NN=C2CCCCCC2)c1`: the EC50 was 1.77 µM. Take `O=C(O)CCn1cc(/C=C/C(=O)c2ccc(Cl)cc2)c(-c2cccc(Br)c2)n1`: the concentration for a half-maximal effect (EC50) was 3.68 µM.

Consider `CCOC(=O)c1cnc(-n2nc(C)cc2C)nc1NCc1ccccc1`, for which the EC50 was 4.14 µM. `Cc1ccc(C(=O)Nc2nnc(C3=COCCO3)o2)cc1C`: the EC50 is 2.96 µM. The value for `CC(=O)C1=C(c2ccc(Br)cc2)C(=O)c2ccccc2C1=O` was 1.45 µM; that for `COc1cnc(-c2ccccn2)nc1Sc1ccc(Cl)cc1` was 4.96 µM. Turning to `Cc1cccnc1NCc1ccc(O)c2ncccc12`, the half-maximal effective concentration (EC50) was 5.65 µM. Regarding `CCCn1cc(CN2CCC(n3nccc3NC(=O)c3ccccc3)CC2)c(C)n1`, the EC50 was > 15 µM (inactive). As to `O=C(Nc1nc2ccc(SC(F)F)cc2s1)c1ccc(NS(=O)(=O)c2ccc(F)c(F)c2)cc1`, the EC50 is 1.89 µM. For the compound `CCS(=O)(=O)N1Cc2ccccc2CC1C(=O)Nc1nnc(SCc2ccc(F)cc2)s1` (stereo unspecified), the EC50 is 2.35 µM. Regarding `CCCc1cc(=O)n2[nH]c(C)c(-c3ccc(Cl)cc3)c2n1`, the concentration for a half-maximal effect (EC50) was 5.81 µM.

Take `COc1cccc(N=Nc2ccc3cccnc3c2O)c1`: the EC50 is under 0.06 µM. As for `O=C(Nc1ccc(Br)cc1C(=O)O)c1ccc2c(c1)C(=O)N(Cc1ccccc1)C2=O`, the EC50 was 1.15 µM.

Take `CN=C1S/C(=C\c2ccc(N3CCOCC3)c(F)c2)C(=O)N1C`: the concentration giving a half-maximal response (EC50) was 4.94 µM. For `Clc1ccc(SCc2cc(Cl)nc(-c3ccccc3)n2)cc1`, the EC50 is > 15 µM (inactive).
